# Source: patent publication US12643889B2, “Synthesis of novel EP4 antagonist and use in cancer and inflammation” (Wuhan Humanwell Innovative Drug Research And Development …, priority 2020, dated 2026)
# Tests used:
# [1] = Mouse pharmacokinetic assay; format: in vivo, male ICR mice; conditions: male, ICR, plasma
# Protocol: In a mouse pharmacokinetic assay, male ICR mice (20 g to 25 g) were selected and fasted overnight. Three mice were selected and intragastrically administered with 5 mg/kg of the corresponding compound. The blood of the mice was collected before the administration and at 15 min, 30 min, 1 h, 2 h, 4 h, 8 h, 24 h after the administration. Another 3 mice were intravenously administered with 1 mg/kg of the corresponding compound, and the blood thereof was collected before the administration and at 15 min, 30 min, 1 h, 2 h, 4 h, 8 h, 24 h after the administration. The blood samples were centrifuged at 6800 g at 2° C. to 8° C. for 6 minutes, and plasma was collected and stored at −80° C. The plasma was taken at respective time point, mixed with 3-5 times the amount of acetonitrile containing internal standard, vortexed for 1 minute, centrifuged at 4° C. for 10 minutes at 13000 rpm, supernatant was added 3 times the amount of water, and the appropriate mixture was taken for LC-MS/MS analysis. The primary pharmacokinetic parameters were analyzed with a WinNonlin 7.0 software, with non-compartmental model.
# [2] = system: CT-26 murine colon cancer tumor model; experiment: Anti-tumor effect in CT-26 murine colon cancer tumor model in combination with radiation therapy; format: in vivo, mouse; conditions: 150 mg/kg intragastric once daily in combination with radiotherapy (3Gry, once on day 1); day 23; tumor weight
# Protocol: In this assay, the anti-tumor effects of the control compound and the compounds prepared in Examples 1 to 43, in combination with radiation therapy, were tested in a CT-26 murine colon cancer tumor model.
# After one week of adaptive feeding of mice, CT-26 cells in a log phase were resuspended in PBS, 5×10^5 CT-26 cells were inoculated subcutaneously at the right flank at 100 μL per mouse, and tumor growth was observed regularly. When the tumor grew to an average volume of 60 to 80 mm^3, the mice carrying the tumor were randomly divided into 5 groups based on the tumor volume size, each group containing 10 mice of 10. These group were a group of Control compound (150 mg/kg) in combination with radiotherapy (3Gry), a group of Compound I-2 (150 mg/kg) in combination with radiotherapy, a group of Compound I-5 (150 mg/kg) in combination with radiotherapy, a group of radiotherapy (3Gry) alone, and a group of vehicle control. The mice were intragastrically administered with the corresponding compound once daily, for 23 days in total; radiation therapy was performed for one-time on the first day of the administration. Tumor volumes and mouse body weights were measured twice a week, and tumor weights were weighed at the end of the experiment. Efficacy evaluations were performed based on relative tumor inhibition (TGI), safety evaluations were performed based on changes in animal body weight and death. Tumor volume and relative tumor inhibition were calculated as follows:
# Tumor volume (TV)=½×a×b^2, where a and b are the length and width of the tumor measurement, respectively.
# Relative tumor inhibition rate TGI (%)=(TWc−TWt/TWc)×100%, where TWc is the mean tumor weight of the vehicle control group and TW is the mean tumor weight of the treatment group.
# [3] = intravenous administration 1 mg/kg
# [4] = oral gavage administration 5 mg/kg
compound,measurement,setting,value
"C[C@H](NC(=O)c1c(C(F)F)nn(C)c1Oc1cccc(C(C)(F)F)c1)c1ccc(C(=O)O)cc1 [Compound I-5, (S)-4-(1-(5-(3-(1,1-difluoroethyl)phenoxy)-3-(difluoromethyl)-1-methyl-1H-pyrazole-4-carboxamido)ethyl)benzoic Acid]",AUC(0-t),[1]; [3],1260 ng·h/mL
same,clearance,[1]; [3],12.7 mL/min/kg
same,half-life,[1]; [3],5.11 h
same,Vd,"[1]; intravenous administration 1 mg/kg, read-out: Vz",5.62 L/kg
same,AUC(0-t),[1]; [4],2710 ng·h/mL
same,Cmax,[1]; [4],1450 ng/mL
same,Tmax,[1]; [4],0.33 h
same,half-life,[1]; [4],7 h
same,relative tumor inhibition rate TGI (%),[2],79%
